Reference: patent US20230398130A1, “METHODS AND COMPOSITIONS FOR DIFFERENTIATING STEM CELLS” (Massachusetts Institute of Technology, priority 2020, published 2023)

Tests used:
ISC-enriched organoids [1] = test: Primary screen, 384-well 2.5-D organoid differentiation (ENR+CD, 6 days): basal lysozyme secretion (LYZ.NS); format: cell-based, murine; conditions: primary screen; for Dose.FC.LYZ.NS (log 2 fold change): vs plate median
Description: (§1) High-throughput screening.

ISC-enriched organoids [2] = test: Primary screen, 384-well 2.5-D organoid differentiation (ENR+CD, 6 days): carbachol-induced lysozyme secretion (LYZ.S); format: cell-based, murine; conditions: primary screen, vs plate median
Description: as §1

ISC-enriched organoids [3] = test: Primary screen, 384-well 2.5-D organoid differentiation (ENR+CD, 6 days, Target Selective Inhibitor Library, vs whole-plate median): ATP (CellTiter-Glo 3D, CTG); conditions: primary screen; for Dose.FC.CTG (log 2 fold change): vs plate median

| SMILES | Z.LYZ.NS (standard z score) (ISC-enriched organoids [1]; Dose 0.08 uM) | Dose.FC.LYZ.NS (log 2 fold change) (ISC-enriched organoids [1]; Dose 0.08 uM) | Z.LYZ.NS (standard z score) (ISC-enriched organoids [1]; Dose 0.40 uM) | Dose.FC.LYZ.NS (log 2 fold change) (ISC-enriched organoids [1]; Dose 0.40 uM) | Z.LYZ.NS (standard z score) (ISC-enriched organoids [1]; Dose 2.00 uM) | Dose.FC.LYZ.NS (log 2 fold change) (ISC-enriched organoids [1]; Dose 2.00 uM) | Z.LYZ.NS (standard z score) (ISC-enriched organoids [1]; Dose 10.00 uM) | Dose.FC.LYZ.NS (log 2 fold change) (ISC-enriched organoids [1]; Dose 10.00 uM) | Dose.FC.LYZ.S (log 2 fold change) (ISC-enriched organoids [2]; Dose 0.08 uM) | Dose.FC.LYZ.S (log 2 fold change) (ISC-enriched organoids [2]; Dose 0.40 uM) | Dose.FC.LYZ.S (log 2 fold change) (ISC-enriched organoids [2]; Dose 2.00 uM) | Dose.FC.LYZ.S (log 2 fold change) (ISC-enriched organoids [2]; Dose 10.00 uM) | Z.CTG (standard z score) (ISC-enriched organoids [3]; Dose 0.08 uM) | Dose.FC.CTG (log 2 fold change) (ISC-enriched organoids [3]; Dose 0.08 uM) | Z.CTG (standard z score) (ISC-enriched organoids [3]; Dose 0.40 uM) | Dose.FC.CTG (log 2 fold change) (ISC-enriched organoids [3]; Dose 0.40 uM) | Z.CTG (standard z score) (ISC-enriched organoids [3]; Dose 2.00 uM) | Dose.FC.CTG (log 2 fold change) (ISC-enriched organoids [3]; Dose 2.00 uM) | Z.CTG (standard z score) (ISC-enriched organoids [3]; Dose 10.00 uM) | Dose.FC.CTG (log 2 fold change) (ISC-enriched organoids [3]; Dose 10.00 uM) |
| --- | --- | --- | --- | --- | --- | --- | --- | --- | --- | --- | --- | --- | --- | --- | --- | --- | --- | --- | --- | --- |
| Oc1ccc(Nc2nc(-c3ccc(Cl)cc3)cs2)cc1 [SKI II] | 0.683 | 0.078 | 1.906 | 0.219 | 0.647 | 0.074 | −1.362 | −0.156 | 0.090 | 0.123 | 0.061 | −0.191 | 0.699 | 0.293 | 0.531 | 0.222 | 0.473 | 0.198 | −0.802 | −0.336 |
| O=C1NC(=O)/C(=C/c2cccc(C(F)(F)F)c2)S1 [SMI-4a] | 0.188 | 0.022 | −0.524 | −0.060 | 0.283 | 0.032 | −0.643 | −0.074 | 0.036 | −0.063 | −0.042 | −0.134 | −0.366 | −0.153 | −0.758 | −0.317 | −0.793 | −0.332 | −0.781 | −0.327 |
| CC(C)(C)c1cnc(CSc2cnc(NC(=O)C3CCNCC3)s2)o1 [SNS-032 (BMS-387032)] | 0.428 | 0.049 | −1.241 | −0.143 | −2.399 | −0.276 | −2.214 | −0.254 | 0.070 | −0.206 | −0.301 | −0.361 | −0.180 | −0.075 | −0.198 | −0.083 | −2.186 | −0.915 | −2.411 | −1.009 |
| O=C(Nc1cc(C(F)(F)F)ccc1N1CCCCC1)c1ccncc1 [SRPIN340] | 1.004 | 0.115 | 0.348 | 0.040 | 0.846 | 0.097 | 0.192 | 0.022 | 0.112 | 0.098 | 0.100 | 0.078 | 1.005 | 0.421 | 1.063 | 0.445 | 1.083 | 0.453 | 1.115 | 0.467 |
| O=C(Nc1ccccc1-c1cn2c(CN3CCNCC3)csc2n1)c1cnc2ccccc2n1 [SRT1720] | 1.495 | 0.172 | 0.972 | 0.112 | 0.613 | 0.070 | −0.906 | −0.104 | 0.190 | 0.099 | 0.051 | −0.193 | 1.264 | 0.529 | 0.940 | 0.394 | 0.810 | 0.339 | −2.427 | −1.016 |
| COc1c(C)c(C(=O)c2ccc(N)c(C(=O)[O-])c2)n2ccccc12.[Na+] [SSR128129E] | 0.807 | 0.093 | 0.339 | 0.039 | 0.257 | 0.030 | −0.850 | −0.098 | 0.086 | 0.122 | 0.023 | −0.095 | 0.210 | 0.088 | 0.545 | 0.228 | 0.291 | 0.122 | −0.063 | −0.026 |
| Cc1ccc(S(=O)(=O)Cc2nc(-c3ccc(C(=O)NCc4cccnc4)cc3)oc2C)cc1 [STF-118804] | −1.349 | −0.155 | −1.824 | −0.210 | −1.502 | −0.172 | −1.541 | −0.177 | −0.257 | −0.212 | −0.271 | −0.300 | −0.360 | −0.151 | −3.346 | −1.401 | −2.189 | −0.916 | −3.195 | −1.338 |
| O=C(/C=C/c1ccccc1)NC(NC(=S)Nc1ccc(Cl)cc1)C(Cl)(Cl)Cl (stereo not shown) [Sal003] | 1.013 | 0.116 | 1.595 | 0.183 | 0.670 | 0.077 | −2.142 | −0.246 | 0.092 | 0.067 | 0.040 | −0.408 | 0.456 | 0.191 | 0.370 | 0.155 | 0.468 | 0.196 | −1.981 | −0.829 |
